Data reported in US8329706B2, “Oxazolidinone derivatives” (Actelion Pharmaceuticals Ltd., priority 2009, dated 2012).

Columns and labels:
[1] = molecular target: T1, human orexin-1 receptor (Homo sapiens, UniProt O43613); assay: FLIPR intracellular calcium assay, orexin receptor antagonistic activity (OX1); assay type: cell-based; settings: CHO cells expressing human orexin-1 receptor; agonist 3 nM orexin-A; normalized to on-plate reference; * geomean n = 5, *2 geomean n = 2
T1 construct: expressed in transfected cells; host or cells: CHO cells (G418 selection)
T1 sequence (O43613 1-425): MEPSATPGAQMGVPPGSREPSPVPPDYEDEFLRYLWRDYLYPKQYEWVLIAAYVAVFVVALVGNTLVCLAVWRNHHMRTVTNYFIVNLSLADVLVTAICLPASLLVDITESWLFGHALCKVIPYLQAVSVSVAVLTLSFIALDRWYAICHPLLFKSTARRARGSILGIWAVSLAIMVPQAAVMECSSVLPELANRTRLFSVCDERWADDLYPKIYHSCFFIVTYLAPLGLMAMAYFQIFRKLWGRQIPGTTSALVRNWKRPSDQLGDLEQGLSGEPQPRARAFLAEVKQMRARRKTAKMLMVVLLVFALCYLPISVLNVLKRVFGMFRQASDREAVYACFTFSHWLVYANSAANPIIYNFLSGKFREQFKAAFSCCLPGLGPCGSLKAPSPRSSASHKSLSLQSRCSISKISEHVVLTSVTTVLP
Protocol: (§1) The orexin receptor antagonistic activity of the compounds of formula (I) is determined in accordance with the following experimental method.
(§2) Chinese hamster ovary (CHO) cells expressing the human orexin-1 receptor and the human orexin-2 receptor, respectively, are grown in culture medium (Ham F-12 with L-Glutamine) containing 300 μg/ml G418, 100 U/ml penicillin, 100 μg/ml streptomycin and 10% heat inactivated fetal calf serum (FCS). The cells are seeded at 20′000 cells/well into 384-well black clear bottom sterile plates (Greiner). The seeded plates are incubated overnight at 37° C. in 5% CO2.
(§3) Human orexin-A as an agonist is prepared as 1 mM stock solution in MeOH:water (1:1), diluted in HBSS containing 0.1% bovine serum albumin (BSA), NaHCO3: 0.375 g/l and 20 mM HEPES for use in the assay at a final concentration of 3 nM.
(§4) Antagonists are prepared as 10 mM stock solution in DMSO, then diluted in 384-well plates using DMSO followed by a transfer of the dilutions into in HBSS containing 0.1% bovine serum albumin (BSA), NaHCO3: 0.375 g/l and 20 mM HEPES. On the day of the assay, 50 μl of staining buffer (HBSS containing 1% FCS, 20 mM HEPES, NaHCO3: 0.375 g/l, 5 mM probenecid (Sigma) and 3 μM of the fluorescent calcium indicator fluo-4 AM (1 mM stock solution in DMSO, containing 10% pluronic) is added to each well. The 384-well cell-plates are incubated for 50 min at 37° C. in 5% CO2 followed by equilibration at rt for 30-120 min before measurement.
(§5) Within the Fluorescent Imaging Plate Reader (FLIPR Tetra, Molecular Devices), antagonists are added to the plate in a volume of 10 μl/well, incubated for 10 min and finally 10 μl/well of agonist is added. Fluorescence is measured for each well at 1 second intervals, and the height of each fluorescence peak is compared to the height of the fluorescence peak induced by 3 nM orexin-A with vehicle in place of antagonist. For each antagonist, the IC50 value (the concentration of compound needed to inhibit 50% of the agonistic response) is determined and normalized using the obtained IC50 value of a on-plate reference compound. Optimized conditions were achieved by adjustment of pipetting speed and cell splitting regime. The calculated IC50 values of the compounds may fluctuate depending on the daily cellular assay performance. Fluctuations of this kind are known to those skilled in the art.

[2] = molecular target: T2, human orexin-2 receptor (Homo sapiens, UniProt O43614); assay: FLIPR intracellular calcium assay, orexin receptor antagonistic activity (OX2); assay type: cell-based; settings: CHO cells expressing human orexin-2 receptor; agonist 3 nM orexin-A; normalized to on-plate reference; * geomean n = 5, *2 geomean n = 2
T2 construct: expressed in transfected cells; host or cells: CHO cells (G418 selection)
T2 sequence (O43614 1-444): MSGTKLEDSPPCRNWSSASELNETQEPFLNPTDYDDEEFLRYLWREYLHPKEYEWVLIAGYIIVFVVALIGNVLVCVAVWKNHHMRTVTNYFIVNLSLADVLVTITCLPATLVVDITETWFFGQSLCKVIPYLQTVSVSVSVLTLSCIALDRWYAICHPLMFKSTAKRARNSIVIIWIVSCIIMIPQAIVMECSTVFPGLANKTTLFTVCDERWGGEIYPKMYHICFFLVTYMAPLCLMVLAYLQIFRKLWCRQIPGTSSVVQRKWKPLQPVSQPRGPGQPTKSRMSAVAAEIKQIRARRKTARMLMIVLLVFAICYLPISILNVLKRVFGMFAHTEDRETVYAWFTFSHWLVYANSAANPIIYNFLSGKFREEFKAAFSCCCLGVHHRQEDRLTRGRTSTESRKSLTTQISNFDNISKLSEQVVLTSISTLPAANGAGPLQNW
Protocol: as §1, §2, §3, §4, §5

| SMILES | IC50 [1] | IC50 [2] |
| --- | --- | --- |
| CCOc1ccccc1C1OCC(=O)N1Cc1ccc(Cl)cc1Cl (centres unmarked) [Example 30, 3-(2,4-Dichloro-benzyl)-2-(2-ethoxy-phenyl)-oxazolidin-4-one] | 3050 nM | 844 nM |
| CCOc1ccccc1C1OCC(=O)N1Cc1ccc(C)c(Cl)c1 (centres unmarked) [Example 31, 3-(3-Chloro-4-methyl-benzyl)-2-(2-ethoxy-phenyl)-oxazolidin-4-one] | 7600 nM | 634 nM |
| COc1cccc(OC)c1C1OCC(=O)N1Cc1ccc(C(F)(F)F)cc1 (centres unmarked) [Example 32, 2-(2,6-Dimethoxy-phenyl)-3-(4-trifluoromethyl-benzyl)-oxazolidin-4-one] | > 10000 nM | 413 nM |
| COc1cccc(OC)c1C1OCC(=O)N1Cc1ccccc1OC(F)(F)F (centres unmarked) [Example 33, 2-(2,6-Dimethoxy-phenyl)-3-(2-trifluoromethoxy-benzyl)-oxazolidin-4-one] | > 10000 nM | 225 nM |
| COc1cccc(OC)c1C1OCC(=O)N1Cc1ccc(OC(F)(F)F)cc1 (centres unmarked) [Example 34, 2-(2,6-Dimethoxy-phenyl)-3-(4-trifluoromethoxy-benzyl)-oxazolidin-4-one] | 6470 nM | 298 nM |
| COc1cccc(OC)c1C1OCC(=O)N1Cc1cccc(OC(F)(F)F)c1 (centres unmarked) [Example 35, 2-(2,6-Dimethoxy-phenyl)-3-(3-trifluoromethoxy-benzyl)-oxazolidin-4-one] | 2890 nM | 618 nM |
| COc1cccc(OC)c1C1OCC(=O)N1Cc1ccc(F)c(Cl)c1 (centres unmarked) [Example 36, 3-(3-Chloro-4-fluoro-benzyl)-2-(2,6-dimethoxy-phenyl)-oxazolidin-4-one] | 1340 nM | 632 nM |
| COc1cccc(OC)c1C1OCC(=O)N1Cc1cc(C(F)(F)F)cc(Cl)c1F (centres unmarked) [Example 37, 3-(3-Chloro-2-fluoro-5-trifluoromethyl-benzyl)-2-(2,6-dimethoxy-phenyl)-oxazolidin-4-one] | 162 nM | 477 nM |
| COc1cccc(OC)c1C1OCC(=O)N1Cc1ccc(F)c(C(F)(F)F)c1 (centres unmarked) [Example 38, 2-(2,6-Dimethoxy-phenyl)-3-(4-fluoro-3-trifluoromethyl-benzyl)-oxazolidin-4-one] | 1380 nM | 730 nM |
| COc1cccc(OC)c1C1OCC(=O)N1Cc1ccc(Cl)c(F)c1 (centres unmarked) [Example 39, 3-(4-Chloro-3-fluoro-benzyl)-2-(2,6-dimethoxy-phenyl)-oxazolidin-4-one] | 4100 nM | 795 nM |
| COc1cccc(OC)c1C1OCC(=O)N1Cc1ccc(OC(F)(F)F)c(Cl)c1 (centres unmarked) [Example 40, 3-(3-Chloro-4-trifluoromethoxy-benzyl)-2-(2,6-dimethoxy-phenyl)-oxazolidin-4-one] | 198 nM | 29 nM |
| COc1cccc(OC)c1C1OCC(=O)N1Cc1c(C)cc(C)cc1C (centres unmarked) [Example 41, 2-(2,6-Dimethoxy-phenyl)-3-(2,4,6-trimethyl-benzyl)-oxazolidin-4-one] | 542 nM | 681 nM |
| COc1cccc(OC)c1C1OCC(=O)N1Cc1ccc(Cl)cc1Cl (centres unmarked) [Example 42, 3-(2,4-Dichloro-benzyl)-2-(2,6-dimethoxy-phenyl)-oxazolidin-4-one] | 1490 nM | 376 nM |
| COc1cccc(OC)c1C1OCC(=O)N1Cc1c(C)cccc1C (centres unmarked) [Example 44, 2-(2,6-Dimethoxy-phenyl)-3-(2,6-dimethyl-benzyl)-oxazolidin-4-one] | 1760 nM | 467 nM |
| CCOc1ccccc1C1OCC(=O)N1Cc1ccccc1Cl (centres unmarked) [Example 45, 3-(2-Chloro-benzyl)-2-(2-ethoxy-phenyl)-oxazolidin-4-one] | 1740 nM | 870 nM |
| CCOc1ccccc1C1OCC(=O)N1Cc1cc(Cl)ccc1Cl (centres unmarked) [Example 46, 3-(2,5-Dichloro-benzyl)-2-(2-ethoxy-phenyl)-oxazolidin-4-one] | 788 nM | 1520 nM |
| COc1cccc(OC)c1C1OCC(=O)N1Cc1ccc(Oc2ccccc2)cc1 (centres unmarked) [Example 47, 2-(2,6-Dimethoxy-phenyl)-3-(4-phenoxy-benzyl)-oxazolidin-4-one] | 1180 nM | 68 nM |
| COc1cccc(OC)c1C1OCC(=O)N1Cc1ccc(OC(F)(F)F)c(F)c1 (centres unmarked) [Example 48, 2-(2,6-Dimethoxy-phenyl)-3-(3-fluoro-4-trifluoromethoxy-benzyl)-oxazolidin-4-one] | 1350 nM | 99 nM |
| COc1cccc(OC)c1C1OCC(=O)N1Cc1ccc(OC(F)F)cc1 (centres unmarked) [Example 49, 3-(4-Difluoromethoxy-benzyl)-2-(2,6-dimethoxy-phenyl)-oxazolidin-4-one] | 2990 nM | 113 nM |
| COc1cccc(OC)c1C1OC(C)(C)C(=O)N1Cc1ccc(Oc2ccccc2)cc1 (centres unmarked) [Example 50, 2-(2,6-Dimethoxy-phenyl)-5,5-dimethyl-3-(4-phenoxy-benzyl)-oxazolidin-4-one] | 28 nM | 58 nM |
| COc1cccc(OC)c1C1O[C@H](C)C(=O)N1Cc1ccc(Oc2ccccc2)cc1 (stereo partly drawn) [Example 51, 2-(2,6-Dimethoxy-phenyl)-(R)-5-methyl-3-(4-phenoxy-benzyl)-oxazolidin-4-one] | 220 nM | 25 nM |
| COc1cccc(OC)c1C1O[C@H](C)C(=O)N1Cc1ccc(OC(F)F)cc1 (stereo partly drawn) [Example 52, 3-(4-Difluoromethoxy-benzyl)-2-(2,6-dimethoxy-phenyl)-(R)-5-methyl-oxazolidin-4-one] | 726 nM | 41 nM |
| COc1cccc(OC)c1C1O[C@H](C)C(=O)N1Cc1ccc2ccccc2c1 (stereo partly drawn) [Example 53, 2-(2,6-Dimethoxy-phenyl)-(R)-5-methyl-3-naphthalen-2-ylmethyl-oxazolidin-4-one] | 47 nM | 65 nM |
| CCCOc1ccc(CN2C(=O)COC2c2c(OC)cccc2OC)cc1 (centres unmarked) [Example 54, 2-(2,6-Dimethoxy-phenyl)-3-(4-propoxy-benzyl)-oxazolidin-4-one] | 1710 nM | 81 nM |
| COc1cccc(OC)c1C1O[C@H](C)C(=O)N1Cc1ccc(OC(F)(F)F)c(F)c1 (stereo partly drawn) [Example 55, 2-(2,6-Dimethoxy-phenyl)-3-(3-fluoro-4-trifluoromethoxy-benzyl)-(R)-5-methyl-oxazolidin-4-one] | 178 nM | 108 nM |
| COc1cccc(OC)c1C1O[C@H](C)C(=O)N1Cc1ccc(OC(F)(F)F)c(Cl)c1 (stereo partly drawn) [Example 56, 3-(3-Chloro-4-trifluoromethoxy-benzyl)-2-(2,6-dimethoxy-phenyl)-(R)-5-methyl-oxazolidin-4-one] | 164 nM | 111 nM |
| COc1cccc(OC)c1C1OC(C)(C)C(=O)N1Cc1ccc2ccccc2c1 (centres unmarked) [Example 57, 2-(2,6-Dimethoxy-phenyl)-5,5-dimethyl-3-naphthalen-2-ylmethyl-oxazolidin-4-one] | 5 nM | 151 nM |
| COc1cccc(OC)c1C1OC(C)(C)C(=O)N1Cc1ccc(OC(F)(F)F)c(Cl)c1 (centres unmarked) [Example 58, 3-(3-Chloro-4-trifluoromethoxy-benzyl)-2-(2,6-dimethoxy-phenyl)-5,5-dimethyl-oxazolidin-4-one] | 25 nM | 133 nM |
